Data reported in patent US11787825B2 (priority 2021, dated 2023).
In brackets after ≈: the same amount, converted by molar mass. Where two headings read alike, the source gives them in different places. Marks after values point to notes of the source that are not given here.

What was measured:
[1] = Beagle, in vivo, po; for Dog F % (suspension): pH 2
[2] = physchem; conditions: 25 °C, thermodynamic from solid
[3] = fasted state simulated intestinal fluid (FaSSIF), fassif
[4] = fed state simulated intestinal fluid (FeSSIF), fessif
[5] = 0.1N HCL, 1.0% DMSO, 24-hour incubation at ambient temperature, maximum theoretical compound concentration 100 μM
[6] = 1×PBS buffer (pH 7.4), 1.0% DMSO, 24-hour incubation at ambient temperature, maximum theoretical compound concentration 100 μM

Row | Structure (SMILES) | Dog F % (suspension) [1] | solubility [2, 3] | solubility [2, 4] | pH 2 solubility [5] | pH 7 solubility [6] | solubility ([2]; fassif) | solubility ([2]; fessif) | pH 2 solubility (pH 2) | pH 7 solubility (pH 7.4) | Dog F % (solution) [1]
1 | CC(C)(CCN(CC(=O)O)C(=O)OCOP(=O)(O)O)C(=O)N(c1nn(CC(F)(F)F)c2c(-c3ccc(C#CC(C)(C)S(C)(=O)=O)nc3[C@H](Cc3cc(F)cc(F)c3)NC(=O)Cn3nc(C(F)(F)F)c4c3C(F)(F)[C@@H]3C[C@H]43)ccc(Cl)c12)S(C)(=O)=O [Compound 43, N-(4-(N-(4-chloro-7-(2-((S)-1-(2-((3bS,4aR)-5,5-difluoro-3-(trifluoromethyl)-3b,4,4a,5-tetrahydro-1H-cyclopropa[3,4]cyclopenta[1,2-c]pyrazol-1-yl)acetamido)-2-(3,5-difluorophenyl)ethyl)-6-(3-methyl-3-(methylsulfonyl)but-1-yn-1-yl)pyridin-3-yl)-1-(2,2,2-trifluoroethyl)-1H-indazol-3-yl)methylsulfonamido)-3,3-dimethyl-4-oxobutyl)-N-(((phosphonooxy)methoxy)carbonyl)glycine] | 23% | 2900 µg/mL (≈ 2250 µM) | > 5770 µg/mL | 2 μM | 100 μM | – | – | – | – | –
2 | Cc1cc(CC(=O)O)c(C(C)(C)CC(=O)N(c2nn(CC(F)(F)F)c3c(-c4ccc(C#CC(C)(C)S(C)(=O)=O)nc4[C@H](Cc4cc(F)cc(F)c4)NC(=O)Cn4nc(C(F)(F)F)c5c4C(F)(F)[C@@H]4C[C@H]54)ccc(Cl)c23)S(C)(=O)=O)c(OP(=O)(O)O)c1 [Compound 44] | 27% | – | – | – | – | 2870 µg/mL (≈ 2210 µM) | 460 µg/mL (≈ 355 µM) | 1/100 μM | 1/100 μM | –
3 | CC(C)(Cc1ccccc1OP(=O)(O)O)C(=O)N(c1nn(CC(F)(F)F)c2c(-c3ccc(C#CC(C)(C)S(C)(=O)=O)nc3[C@H](Cc3cc(F)cc(F)c3)NC(=O)Cn3nc(C(F)(F)F)c4c3C(F)(F)[C@@H]3C[C@H]43)ccc(Cl)c12)S(C)(=O)=O [Compound 46, 2-(3-(N-(4-chloro-7-(2-((S)-1-(2-((3bS,4aR)-5,5-difluoro-3-(trifluoromethyl)-3b,4,4a,5-tetrahydro-1H-cyclopropa[3,4]cyclopenta[1,2-c]pyrazol-1-yl)acetamido)-2-(3,5-difluorophenyl)ethyl)-6-(3-methyl-3-(methylsulfonyl)but-1-yn-1-yl)pyridin-3-yl)-1-(2,2,2-trifluoroethyl)-1H-indazol-3-yl)methylsulfonamido)-2,2-dimethyl-3-oxopropyl)phenyl dihydrogen phosphate] | 10% | – | – | – | – | 700 µg/mL | > 2150 µg/mL | 1/66 μM | 1/66 μM | –
4 | Cc1cc(C(=O)O)cc(OP(=O)(O)O)c1C(C)(C)CC(=O)N(c1nn(CC(F)(F)F)c2c(-c3ccc(C#CC(C)(C)S(C)(=O)=O)nc3[C@H](Cc3cc(F)cc(F)c3)NC(=O)Cn3nc(C(F)(F)F)c4c3C(F)(F)[C@@H]3C[C@H]43)ccc(Cl)c12)S(C)(=O)=O [Compound 49, 4-(4-(N-(4-chloro-7-(2-((S)-1-(2-((3bS,4aR)-5,5-difluoro-3-(trifluoromethyl)-3b,4,4a,5-tetrahydro-1H-cyclopropa[3,4]cyclopenta[1,2-c]pyrazol-1-yl)acetamido)-2-(3,5-difluorophenyl)ethyl)-6-(3-methyl-3-(methylsulfonyl)but-1-yn-1-yl)pyridin-3-yl)-1-(2,2,2-trifluoroethyl)-1H-indazol-3-yl)methylsulfonamido)-2-methyl-4-oxobutan-2-yl)-3-methyl-5-(phosphonooxy)benzoic acid] | 20% | – | – | – | – | 384 µg/mL (≈ 299 µM) | 390 µg/mL (≈ 304 µM) | 3/100 μM | 3/100 μM | –
5 | CN(C(=O)N(c1nn(CC(F)(F)F)c2c(-c3ccc(C#CC(C)(C)S(C)(=O)=O)nc3[C@H](Cc3cc(F)cc(F)c3)NC(=O)Cn3nc(C(F)(F)F)c4c3C(F)(F)[C@@H]3C[C@H]43)ccc(Cl)c12)S(C)(=O)=O)c1ncccc1CN(CC(=O)O)C(=O)OCOP(=O)(O)O [Compound 52, N-((2-(3-(4-chloro-7-(2-((S)-1-(2-((3bS,4aR)-5,5-difluoro-3-(trifluoromethyl)-3b,4,4a,5-tetrahydro-1H-cyclopropa[3,4]cyclopenta[1,2-c]pyrazol-1-yl)acetamido)-2-(3,5-difluorophenyl)ethyl)-6-(3-methyl-3-(methylsulfonyl)but-1-yn-1-yl)pyridin-3-yl)-1-(2,2,2-trifluoroethyl)-1H-indazol-3-yl)-1-methyl-3-(methylsulfonyl)ureido)pyridin-3-yl)methyl)-N-(((phosphonooxy)methoxy)carbonyl)glycine] | 24% | 1370 µg/mL (≈ 1020 µM) | > 6260 µg/mL | 2 μM | 100 μM | – | – | – | – | –
6 | CN(C(=O)N(c1nn(CC(F)(F)F)c2c(-c3ccc(C#CC(C)(C)S(C)(=O)=O)nc3[C@H](Cc3cc(F)cc(F)c3)NC(=O)Cn3nc(C(F)(F)F)c4c3C(F)(F)[C@@H]3C[C@H]43)ccc(Cl)c12)S(C)(=O)=O)c1ncccc1COP(=O)(O)O [Compound 53, (2-(3-(4-chloro-7-(2-((S)-1-(2-((3bS,4aR)-5,5-difluoro-3-(trifluoromethyl)-3b,4,4a,5-tetrahydro-1H-cyclopropa[3,4]cyclopenta[1,2-c]pyrazol-1-yl)acetamido)-2-(3,5-difluorophenyl)ethyl)-6-(3-methyl-3-(methylsulfonyl)but-1-yn-1-yl)pyridin-3-yl)-1-(2,2,2-trifluoroethyl)-1H-indazol-3-yl)-1-methyl-3-(methylsulfonyl)ureido)pyridin-3-yl)methyl dihydrogen phosphate] | 5% | – | – | – | – | 391 µg/mL | 958 µg/mL | 2/78 μM | 2/78 μM | –
7 | CN(C(=O)N(c1nn(CC(F)(F)F)c2c(-c3ccc(C#CC(C)(C)S(C)(=O)=O)nc3[C@H](Cc3cc(F)cc(F)c3)NC(=O)Cn3nc(C(F)(F)F)c4c3C(F)(F)[C@@H]3C[C@H]43)ccc(Cl)c12)S(C)(=O)=O)c1ncc(C(=O)O)cc1COP(=O)(O)O [Compound 62, 6-(3-(4-chloro-7-(2-((S)-1-(2-((3bS,4aR)-5,5-difluoro-3-(trifluoromethyl)-3b,4,4a,5-tetrahydro-1H-cyclopropa[3,4]cyclopenta[1,2-c]pyrazol-1-yl)acetamido)-2-(3,5-difluorophenyl)ethyl)-6-(3-methyl-3-(methylsulfonyl)but-1-yn-1-yl)pyridin-3-yl)-1-(2,2,2-trifluoroethyl)-1H-indazol-3-yl)-1-methyl-3-(methylsulfonyl)ureido)-5-((phosphonooxy)methyl)nicotinic acid] | – | 490 µg/mL (≈ 390 µM) | – | 1 μM | 67 μM | – | – | – | – | 8 ^c %
